A word on the IC50: it is the concentration at which inhibition is half-maximal.

Each structure is given as a SMILES string. Values after ≈ are worked out from the molar mass of the structure shown. Like-named read-outs stand apart in the source and are kept apart here.

Here are results for three compounds from patent US11801247B1, “Method of treating trypanosomiasis” (KING FAISAL UNIVERSITY, priority 2023, dated 2023).

In assay [1] the test system is T. b. brucei (Tbb) GuTat3.1. Put plainly: Anti-trypanosomal assay (CellTiter-Glo viability). The assay is classed as cell-based. To be noted: TbbGUTat3.1, mean ± SD. From the text: (§1) Raltitrexed was purchased from ApexBio (Houston, TX, USA), and CultureSure DMSO was obtained from Wako Pure Chemical (Osaka, Japan). T. b. brucei (Tbb) GuTat3.1, T. b. rhodesiense (Tbr) IL1501, T. b. gambiense (Tbg) IL1922 (isolated from Ivory Coast), T. evansi (Tev) Tansui (isolated from Taiwan), T. equiperdum (Teq) IVM-t1 and T. congolense (Tc) IL3000 were also obtained for this study. A 96-well Optical bottom plate was purchased from ThermoFisher […] (Waltham, MA, USA). CellTiter-Glo Luminescent cell viability reagent and GloMax plate reader were purchased from Promega Corporation (Fitchburg, WI, USA). Hiram's modified Isocove's Dulbecco's medium (HMI-9), HEPES, pyruvic acid sodium salt, BSA, thymidine, 2-mercaptoethanol, L-cysteine, bathocuproine and hypoxanthine were purchased from Sigma-Aldrich (Tokyo, Japan). A basic plate shaker was obtained from IKA® JAPAN (K.K., Osaka, Japan).
(§2) The trypanocidal activity of raltitrexed was evaluated. The trypanosomes were cultured at 37° C. for Tbb, Tbg, Tbr, Teq and Tev and 33° C. for Tc in an incubator at 5% CO2 using HMI-9 supplemented with 20% heat-inactivated fetal calf serum, 60 mM HEPES, 10 μg/L insulin, 0.1 mM bathocuproine, 5.5 μg/L transferrin, 1 mM pyruvic acid sodium salt, 1 mM hypoxanthine, 16 μM thymidine, 6.7 ng/L sodium selenite, 0.0001% 2-$-mercaptoethanol, 2 mM L-cysteine and 0.4 g/L BSA. Trypanosomes were subcultured every two days. Raltitrexed was dissolved in DMSO:H2O (1:10, v/v). The effect of the solvent was assessed to be negligible on the parasite.
(§3) Initially, raltitrexed was examined at two concentrations of 25 and 0.25 μg/ml to check the possible extended spectrum opportunities against six trypanosomes. […] This range was effective in the accurate estimation of the IC50 of the compound. After three days of cultivation, 25 μL of CellTiter-Glo Luminescent cell viability reagent were aliquoted into each well, and the plate was shaken for 500 shakes/min by an MS3 basic plate shaker for 30 s to facilitate cell lysis and release intracellular ATP. After mixing, the bioluminescence of each well was measured using a Glomax plate reader.
In general terms: In ATP-based viability assays light output follows the ATP content of the culture.

For assay [2], the system named is T. b. gambiense (Tbg) IL1922. Put plainly: Anti-trypanosomal assay (CellTiter-Glo viability). To be noted: TbgIL1922, mean ± SD. It is filed as cell-based.
Excerpt: as §1, §2, §3

In assay [3] the test system is T. b. rhodesiense (Tbr) IL1501. As to the kind of experiment: Anti-trypanosomal assay (CellTiter-Glo viability). The assay is classed as cell-based. The settings on record: TbrIL1501, mean ± SD.
Excerpt: as §1, §2, §3

In assay [4] the test system is T. congolense (Tc) IL3000. Put plainly: Anti-trypanosomal assay (CellTiter-Glo viability). It is filed as cell-based. To be noted: TcIL3000.
Excerpt: as §1, §2, §3

Assay [5] concerns T. equiperdum (Teq) IVM-t1. As to the kind of experiment: Anti-trypanosomal assay (CellTiter-Glo viability). It is filed as cell-based. To be noted: mean ± SD.
Excerpt: as §1, §2, §3

For the next assay, the system named is T. evansi (Tev) Tansui. Put plainly: Anti-trypanosomal assay (CellTiter-Glo viability). The settings on record: mean ± SD. It is filed as cell-based.
Excerpt: as §1, §2, §3

Another assay has as its system six Trypanosoma species. As to the kind of experiment: Anti-trypanosomal assay, six trypanosomes taken together. It is filed as cell-based.
Excerpt: as §1, §2
Initially, raltitrexed was examined at two concentrations of 25 and 0.25 μg/ml to check the possible extended spectrum opportunities against six trypanosomes. […] This range was effective in the accurate estimation of the IC50 of the compound. […] After mixing, the bioluminescence of each well was measured using a Glomax plate reader.

Assay [6] has as its target DHFR activity of TbDHFR-TS (Trypanosoma brucei brucei, UniProt Q27783). To be noted: cited from earlier work.
Another assay has as its target TS activity of TbDHFR-TS (Trypanosoma brucei brucei, UniProt Q27783). To be noted: cited from earlier work.
A further assay deals with T. brucei. The settings on record: cited from earlier work; for potency against T. brucei: thymidine and folate-deficient medium.

Sequence of DHFR activity of TbDHFR-TS (Q27783 whole entry): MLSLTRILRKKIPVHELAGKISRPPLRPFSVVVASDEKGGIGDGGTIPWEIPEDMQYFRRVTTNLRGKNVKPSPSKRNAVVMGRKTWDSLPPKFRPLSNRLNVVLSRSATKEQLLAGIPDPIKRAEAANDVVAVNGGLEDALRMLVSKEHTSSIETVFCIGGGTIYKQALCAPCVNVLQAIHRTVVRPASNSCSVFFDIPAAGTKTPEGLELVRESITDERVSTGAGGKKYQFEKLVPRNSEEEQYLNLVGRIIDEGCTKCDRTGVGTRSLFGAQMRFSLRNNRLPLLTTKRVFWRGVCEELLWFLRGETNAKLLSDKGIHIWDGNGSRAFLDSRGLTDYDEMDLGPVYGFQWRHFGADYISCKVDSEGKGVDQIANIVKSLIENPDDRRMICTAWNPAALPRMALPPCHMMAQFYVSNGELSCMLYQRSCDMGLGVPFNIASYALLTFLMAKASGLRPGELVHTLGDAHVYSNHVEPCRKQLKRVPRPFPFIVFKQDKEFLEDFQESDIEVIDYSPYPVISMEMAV
Sequence of TS activity of TbDHFR-TS (Q27783 whole entry): as above

On to `Cc1nc2ccc(CN(C)c3ccc(C(=O)N[C@@H](CCC(=O)O)C(=O)O)s3)cc2c(=O)[nH]1` [Raltitrexed], for which the “Inhibition Rate at 25 μg/mL” value in [1] (25 μg/mL) was 99.47 ± 0.07%; in assay [2] (25 μg/mL), 99.6 ± 0.33%; in assay [3] (25 μg/mL) it was 99.68 ± 0.16%; in assay [4] (25 μg/mL, mean ± SD) it was “low trypanocidal rate”; in [5] (25 μg/mL), 99.8 ± 0.027%; in the assay on T. evansi (Tev) Tansui (25 μg/mL) it was 99.9 ± 0.12%. The inhibition at 0.25 µg/mL in assay [1] (Trypanosoma brucei, 0.25 μg/mL, read-out: Inhibition Rate at 0.25 μg/mL) amounted to 0%; in assay [2] (Trypanosoma brucei, GAMBIENSE, 0.25 μg/mL, read-out: Inhibition Rate at 0.25 μg/mL), 0%; in assay [3] (Trypanosoma brucei, RHODESIENSE, 0.25 μg/mL, read-out: Inhibition Rate at 0.25 μg/mL) it was 1.01 ± 1.4%; in assay [4] (Trypanosoma congolense, 0.25 μg/mL, mean ± SD, read-out: Inhibition Rate at 0.25 μg/mL), 0%; in assay [5] (Trypanosoma equiperdum, 0.25 μg/mL, read-out: Inhibition Rate at 0.25 μg/mL), 0%; with T. evansi (Tev) Tansui (0.25 μg/mL, read-out: Inhibition Rate at 0.25 μg/mL) it was 0%. The inhibition at 25 µg/mL in assay [1] (Trypanosoma brucei, 25 μg/mL, read-out: Inhibition Rate at 25 μg/mL) was above 99%; in assay [2] (Trypanosoma brucei, GAMBIENSE, 25 μg/mL, read-out: Inhibition Rate at 25 μg/mL) it was above 99%; in assay [3] (Trypanosoma brucei, RHODESIENSE, 25 μg/mL, read-out: Inhibition Rate at 25 μg/mL), above 99%; in assay [4] (Trypanosoma congolense, 25 μg/mL, mean ± SD, read-out: Inhibition Rate at 25 μg/mL), 1.77 ± 2.5%; in assay [5] (Trypanosoma equiperdum, 25 μg/mL, read-out: Inhibition Rate at 25 μg/mL), above 99%; in the assay on T. evansi (Tev) Tansui (25 μg/mL, read-out: Inhibition Rate at 25 μg/mL), above 99%. The IC50 was above 25 µg/mL in [4] (Trypanosoma congolense, 72 h, three days of cultivation); 5.18 to 24.1 µg/mL (≈ 11.3 to 52.6 µM) in the assay on six Trypanosoma species (Trypanosoma, range across species, serial dilution 25 to 0.78 μg/mL, read-out: IC50 range over the Trypanosoma species); 8.88 to 22.5 µg/mL (≈ 19.4 to 49.1 µM) in the assay with six Trypanosoma species (range against Trypanosoma, summary statement, read-out: estimated IC50 range); 93.1 nM in assay [6]; 215 nM on TS activity of TbDHFR-TS. Besides, the “trypanocidal action on all test strains” value in the assay with six Trypanosoma species (25 μg/mL) is on record as “suppressed all the test strains”. Moreover, in the assay with T. brucei (folate and/or thymidine added to the medium), the “effect of adding folate and thymidine on effectiveness” value is “addition of thymidine decreased the effectiveness of raltitrexed more so than the addition of folate”. The “potency against T. brucei” value with T. brucei is listed as “Nanomolar potency”.

For `CN(Cc1cnc2nc(N)nc(N)c2n1)c1ccc(C(=O)N[C@@H](CCC(=O)O)C(=O)O)cc1` [methotrexate], in the assay with T. brucei, the “potency against T. brucei” value was “Nanomolar potency”.

As for `Nc1nc2[nH]cc(CCc3ccc(C(=O)N[C@@H](CCC(=O)O)C(=O)O)cc3)c2c(=O)[nH]1` [pemetrexed], in the assay on T. brucei, the “potency against T. brucei” value is on record as “Nanomolar potency”.
